The values that follow come from the supplement of paper PMC10307832.

Assay in all cases: relative viability (nuclei count vs DMSO), 5 days (fraction); higher = more cells survive
Compound in test [1]: CCN1CCC(CC1)N2C=C(N=N2)CNC3=CC4=C(C(=CN=C4C(=C3)Cl)C#N)NC5=CC(=C(C=C5)F)Cl [KIN001-266] + CC(=O)c1c(C)c2cnc(Nc3ccc(N4CCNCC4)cn3)nc2n(C2CCCC2)c1=O [Palbociclib] (partner 0.5 µM)
In a few lines:
(§1)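 Each reported value is a median over duplicate plates. It expresses relative viability: treated-well nuclei count divided by vehicle-well nuclei count. Lung cancer cell lines in 1536-well plates were dosed by pin tool a day after seeding, alone with one drug or with a fixed anchor-drug dose plus five library-drug doses (not always all listed) in √10 steps, and nuclei were counted after 5 days.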

Compound in test [2]: CCN1CCC(CC1)N2C=C(N=N2)CNC3=CC4=C(C(=CN=C4C(=C3)Cl)C#N)NC5=CC(=C(C=C5)F)Cl [KIN001-266] + Cc1nc(NC(=O)N2CCC[C@H]2C(N)=O)sc1-c1ccnc(C(C)(C)C(F)(F)F)c1 [Alpelisib] (partner 2 µM)
The gist of the method:
as §1

Compound in test [3]: CCN1CCC(CC1)N2C=C(N=N2)CNC3=CC4=C(C(=CN=C4C(=C3)Cl)C#N)NC5=CC(=C(C=C5)F)Cl [KIN001-266] + Cc1nc(Nc2ncc(C(=O)Nc3c(C)cccc3Cl)s2)cc(N2CCN(CCO)CC2)n1 [Dasatinib] (partner 0.075 µM)
The gist of the method:
as §1

Compound in test [4]: CCN1CCC(CC1)N2C=C(N=N2)CNC3=CC4=C(C(=CN=C4C(=C3)Cl)C#N)NC5=CC(=C(C=C5)F)Cl [KIN001-266] + CC(C)C[C@H](NC(=O)[C@H](Cc1ccccc1)NC(=O)c1cnccn1)B(O)O [Bortezomib] (partner 0.002 µM)
In a few lines: as §1

With NCI-H1944, the relative viability in test [1] (first compound 0.08 µM) came to 0.338; in test [1] (first compound 0.253 µM) it was 0.355; in test [1] (first compound 0.8 µM), 0.319; in test [1] (first compound 2.53 µM) it was 0.361; in test [1] (first compound 8 µM) it was 0.351; in test [2] (first compound 0.08 µM), 0.865. The relative viability in test [2] (first compound 0.253 µM) stood at 0.813; in test [2] (first compound 0.8 µM), 0.797; in test [2] (first compound 2.53 µM), 0.801; in test [2] (first compound 8 µM), 0.852; in test [3] (first compound 0.08 µM), 0.244; in test [3] (first compound 0.253 µM) it was 0.215. In addition, the relative viability in test [3] (first compound 0.8 µM) is 0.187; in test [3] (first compound 2.53 µM) it was 0.214; in test [3] (first compound 8 µM) it was 0.209.

For the cell line NCI-H1650, the relative viability in test [1] (first compound 0.08 µM) is 0.407; in test [1] (first compound 0.253 µM), 0.362; in test [1] (first compound 0.8 µM), 0.377; in test [1] (first compound 2.53 µM) it was 0.267; in test [1] (first compound 8 µM) it was 0.196; in test [4] (first compound 0.08 µM), 0.241. In addition, the relative viability is 0.203 in test [4] (first compound 0.253 µM); 0.191 in test [4] (first compound 0.8 µM); 0.214 in test [4] (first compound 2.53 µM); 0.19 in test [4] (first compound 8 µM); 0.313 in test [3] (first compound 0.08 µM); 0.356 in test [3] (first compound 0.253 µM). For the same cell line, the values for the relative viability in test [3] (first compound 0.8 µM), in test [3] (first compound 2.53 µM) and in test [3] (first compound 8 µM) were 0.238, 0.288 and 0.224, respectively.

For the cell line NCI-H596, the relative viability amounted to 0.919 in test [4] (first compound 0.08 µM); 1.17 in test [4] (first compound 0.253 µM); 1.05 in test [4] (first compound 0.8 µM); 1.04 in test [4] (first compound 2.53 µM); 0.947 in test [4] (first compound 8 µM); 0.492 in test [2] (first compound 0.08 µM). Also, the relative viability in test [2] (first compound 0.253 µM) is 0.445; in test [2] (first compound 0.8 µM) it was 0.431; in test [2] (first compound 2.53 µM), 0.534; in test [2] (first compound 8 µM), 0.398; in test [3] (first compound 0.08 µM) it was 0.607; in test [3] (first compound 0.253 µM), 0.586. Also, the relative viability in test [3] (first compound 0.8 µM) came out at 0.539; in test [3] (first compound 2.53 µM), 0.583; in test [3] (first compound 8 µM), 0.63.

For SK-MES-1, the relative viability worked out at 0.331 in test [1] (first compound 0.08 µM); 0.352 in test [1] (first compound 0.253 µM); 0.28 in test [1] (first compound 0.8 µM); 0.336 in test [1] (first compound 2.53 µM); 0.316 in test [1] (first compound 8 µM); 0.943 in test [2] (first compound 0.08 µM). Besides, the relative viability in test [2] (first compound 0.253 µM) is 0.813; in test [2] (first compound 0.8 µM), 0.845; in test [2] (first compound 2.53 µM) it was 0.872; in test [2] (first compound 8 µM), 0.76; in test [3] (first compound 0.08 µM), 0.418; in test [3] (first compound 0.253 µM) it was 0.356. The relative viability in test [3] (first compound 0.8 µM) stood at 0.357; in test [3] (first compound 2.53 µM) it was 0.337; in test [3] (first compound 8 µM) it was 0.247.

NCI-H2170: the relative viability stood at 0.375 in test [1] (first compound 0.08 µM); 0.433 in test [1] (first compound 0.253 µM); 0.365 in test [1] (first compound 0.8 µM); 0.407 in test [1] (first compound 2.53 µM); 0.373 in test [1] (first compound 8 µM); 0.81 in test [2] (first compound 0.08 µM). Moreover, the relative viability in test [2] (first compound 0.253 µM) turned out to be 0.771; in test [2] (first compound 0.8 µM), 0.776; in test [2] (first compound 2.53 µM), 0.734; in test [2] (first compound 8 µM) it was 0.786; in test [3] (first compound 0.08 µM) it was 0.422; in test [3] (first compound 0.253 µM), 0.505. For the same cell line, the relative viability in test [3] (first compound 0.8 µM) is 0.571; in test [3] (first compound 2.53 µM), 0.594; in test [3] (first compound 8 µM), 0.576.

As to NCI-H358, the relative viability in test [1] (first compound 0.08 µM) turned out to be 0.138; in test [1] (first compound 0.253 µM), 0.126; in test [1] (first compound 0.8 µM) it was 0.137; in test [1] (first compound 2.53 µM), 0.133; in test [1] (first compound 8 µM), 0.171; in test [2] (first compound 0.08 µM) it was 0.825. Moreover, the relative viability in test [2] (first compound 0.253 µM) is 0.774; in test [2] (first compound 0.8 µM), 0.981; in test [2] (first compound 2.53 µM), 0.831; in test [2] (first compound 8 µM), 0.43; in test [3] (first compound 0.08 µM), 0.148; in test [3] (first compound 0.253 µM), 0.171. The relative viability worked out at 0.173 in test [3] (first compound 0.8 µM), 0.137 in test [3] (first compound 2.53 µM) and 0.116 in test [3] (first compound 8 µM).

Regarding NCI-H1563, the relative viability was found to be 0.951 in test [4] (first compound 0.08 µM); 0.982 in test [4] (first compound 0.253 µM); 0.846 in test [4] (first compound 0.8 µM); 0.855 in test [4] (first compound 2.53 µM); 0.809 in test [4] (first compound 8 µM); 0.996 in test [2] (first compound 0.08 µM). Further, the relative viability in test [2] (first compound 0.253 µM) is 0.904; in test [2] (first compound 0.8 µM), 0.92; in test [2] (first compound 2.53 µM), 0.906; in test [2] (first compound 8 µM) it was 0.897; in test [3] (first compound 0.08 µM), 0.468; in test [3] (first compound 0.253 µM), 0.524. For the same cell line, the relative viability in test [3] (first compound 0.8 µM) came to 0.447; in test [3] (first compound 2.53 µM), 0.458; in test [3] (first compound 8 µM), 0.553.

With EBC-1, the relative viability in test [4] (first compound 0.08 µM) was found to be 0.566; in test [4] (first compound 0.253 µM), 0.502; in test [4] (first compound 0.8 µM), 0.477; in test [4] (first compound 2.53 µM) it was 0.446; in test [4] (first compound 8 µM), 0.364; in test [2] (first compound 0.08 µM), 0.929. Moreover, the relative viability in test [2] (first compound 0.253 µM) is 0.879; in test [2] (first compound 0.8 µM) it was 0.822; in test [2] (first compound 2.53 µM), 0.843; in test [2] (first compound 8 µM), 0.629.

With Calu-6, the relative viability in test [4] (first compound 0.08 µM) is 1.11; in test [4] (first compound 0.253 µM) it was 1.11; in test [4] (first compound 0.8 µM), 1.05; in test [4] (first compound 2.53 µM), 0.948; in test [4] (first compound 8 µM) it was 0.682; in test [2] (first compound 0.08 µM) it was 1.16. Further, the relative viability worked out at 0.915 in test [2] (first compound 0.253 µM), 1.1 in test [2] (first compound 0.8 µM), 0.915 in test [2] (first compound 2.53 µM) and 0.86 in test [2] (first compound 8 µM).

As to HCC-44, the relative viability came out at 1.06 in test [1] (first compound 0.08 µM); 0.973 in test [1] (first compound 0.253 µM); 0.95 in test [1] (first compound 0.8 µM); 0.949 in test [1] (first compound 2.53 µM); 1.03 in test [1] (first compound 8 µM); 0.944 in test [4] (first compound 0.08 µM). Further, the relative viability in test [4] (first compound 0.253 µM) is 0.867; in test [4] (first compound 0.8 µM), 0.815; in test [4] (first compound 2.53 µM), 0.852; in test [4] (first compound 8 µM) it was 0.864; in test [2] (first compound 0.08 µM) it was 0.806; in test [2] (first compound 0.253 µM), 0.838. In addition, the results for the relative viability in test [2] (first compound 0.8 µM), in test [2] (first compound 2.53 µM) and in test [2] (first compound 8 µM) were 0.805, 0.868 and 0.651, respectively.
